Square brackets hold non-standard residues; d marks the D form. Peptide text beside a SMILES is read from it. 2Nal = N[C@@H](Cc1ccc2ccccc2c1)C(=O)O; Dab = NCC[C@H](N)C(=O)O; Nva = CCC[C@H](N)C(=O)O
Assays:
[1] = system: Escherichia coli; test: Antimicrobial activity against Escherichia coli ATCC 25922 assessed as reduction in microbial growth measured after 24 hrs by CLSI based broth microdilution method; format: functional
[2] = system: Erythrocyte; test: Hemolytic activity in human erythrocytes incubated for 1 hr by ELISA reader analysis; format: toxicity, cell-based

Compound	MIC [1]	HC10 [2]
CC[C@H](C)[C@H](NC(=O)[C@H](CCCNC(=N)N)NC(=O)[C@H](CCCCN)NC(=O)[C@H](CC(C)C)NC(=O)[C@H](COC)NC(=O)CN)C(=O)N[C@@H](CCCCN)C(=O)N[C@H](C(=O)N[C@@H](CC(C)C)C(=O)N[C@@H](COC)C(N)=O)[C@@H](C)O (H-GS(Me)LKRIKTLS(Me)-NH2)	> 200 µM	> 500 µM
CC[C@H](C)[C@H](NC(=O)[C@H](CCCNC(=N)N)NC(=O)[C@H](CCCCN)NC(=O)[C@H](CCSC)NC(=O)[C@H](CCSC)NC(=O)CN)C(=O)N[C@@H](CCCCN)C(=O)N[C@H](C(=O)N[C@@H](CCSC)C(=O)N[C@@H](CCSC)C(N)=O)[C@@H](C)O (H-GMMKRIKTMM-NH2)	> 200 µM	> 500 µM
CC[C@H](C)[C@H](NC(=O)[C@H](CCCNC(=N)N)NC(=O)[C@H](CCCCN)NC(=O)[C@H](CC(C)C)NC(=O)[C@H](CCSC)NC(=O)CN)C(=O)N[C@@H](CCCCN)C(=O)N[C@H](C(=O)N[C@@H](CC(C)C)C(=O)N[C@@H](CC(C)C)C(N)=O)[C@@H](C)O (H-GMLKRIKTLL-NH2)	200 µM	400 µM
CC[C@H](C)[C@H](NC(=O)[C@H](CCCNC(=N)N)NC(=O)[C@H](CCCCN)NC(=O)[C@H](Cc1ccc2ccccc2c1)NC(=O)CN)C(=O)N[C@@H](CCCCN)C(=O)N[C@H](C(=O)N[C@@H](CC(C)C)C(=O)N[C@@H](CC(C)C)C(N)=O)[C@@H](C)O (H-G[2Nal]KRIKTLL-NH2)	6.25 µM	300 µM
CCC[C@H](NC(=O)[C@H](CCC)NC(=O)[C@@H](NC(=O)[C@H](CCCCN)NC(=O)[C@H](Cc1ccc2ccccc2c1)NC(=O)[C@H](CCCNC(=N)N)NC(=O)[C@H](CCCCN)NC(=O)[C@H](CCC)NC(=O)[C@H](CCC)NC(=O)CN)[C@@H](C)O)C(N)=O (H-G[Nva][Nva]KR[2Nal]KT[Nva][Nva]-NH2)	> 200 µM	> 500 µM
CC[C@H](C)[C@H](NC(=O)[C@H](CCCNC(=N)N)NC(=O)[C@H](CCCCN)NC(=O)[C@H](CC(C)C)NC(=O)[C@H](CC(C)C)NC(=O)CN)C(=O)N[C@@H](CCCCN)C(=O)N[C@@H](CO)C(=O)N[C@@H](CC(C)C)C(=O)N[C@@H](CC(C)C)C(N)=O (H-GLLKRIKSLL-NH2)	100 µM	> 500 µM
CC[C@H](C)[C@H](NC(=O)[C@H](CCCNC(=N)N)NC(=O)[C@H](CCN)NC(=O)[C@H](CC(C)C)NC(=O)[C@H](CC(C)C)NC(=O)CN)C(=O)N[C@@H](CCCCN)C(=O)N[C@@H](CCN)C(=O)N[C@@H](CC(C)C)C(=O)N[C@@H](CC(C)C)C(N)=O (H-GLL[Dab]RIK[Dab]LL-NH2)	> 200 µM	> 500 µM
CC[C@H](C)[C@H](NC(=O)[C@H](CCCNC(=N)N)NC(=O)[C@H](CCCCN)NC(=O)[C@H](COC)NC(=O)[C@H](COC)NC(=O)CN)C(=O)N[C@@H](CCCCN)C(=O)N[C@H](C(=O)N[C@@H](COC)C(=O)N[C@@H](COC)C(N)=O)[C@@H](C)O (H-GS(Me)S(Me)KRIKTS(Me)S(Me)-NH2)	12.5 µM	> 500 µM
CCC[C@H](NC(=O)[C@H](CC(C)C)NC(=O)[C@@H](NC(=O)[C@H](CCCCN)NC(=O)[C@@H](NC(=O)[C@H](CCCNC(=N)N)NC(=O)[C@H](CCCCN)NC(=O)[C@H](CC(C)C)NC(=O)[C@H](CCC)NC(=O)CN)[C@@H](C)CC)[C@@H](C)O)C(N)=O (H-G[Nva]LKRIKTL[Nva]-NH2)	> 200 µM	> 500 µM
CC[C@H](C)[C@H](NC(=O)[C@H](CCCNC(=N)N)NC(=O)[C@H](CCCCN)NC(=O)[C@H](CCSC)NC(=O)[C@H](CC(C)C)NC(=O)CN)C(=O)N[C@@H](CCCCN)C(=O)N[C@H](C(=O)N[C@@H](CCSC)C(=O)N[C@@H](CC(C)C)C(N)=O)[C@@H](C)O (H-GLMKRIKTML-NH2)	> 200 µM	> 500 µM
CC[C@H](C)[C@H](NC(=O)[C@H](CCCNC(=N)N)NC(=O)[C@H](CCCCN)NC(=O)[C@H](CC(C)C)NC(=O)[C@@H](NC(=O)CN)C(C)C)C(=O)N[C@@H](CCCCN)C(=O)N[C@H](C(=O)N[C@@H](CC(C)C)C(=O)N[C@H](C(N)=O)C(C)C)[C@@H](C)O (H-GVLKRIKTLV-NH2)	> 200 µM	> 500 µM
CC[C@H](C)[C@H](NC(=O)[C@H](CCCNC(=N)N)NC(=O)[C@H](CCCCN)NC(=O)[C@@H](NC(=O)[C@@H](NC(=O)CN)C(C)C)C(C)C)C(=O)N[C@@H](CCCCN)C(=O)N[C@H](C(=O)N[C@H](C(=O)N[C@H](C(N)=O)C(C)C)C(C)C)[C@@H](C)O (H-GVVKRIKTVV-NH2)	> 200 µM	> 500 µM

Reference: ChEMBL document CHEMBL5608163, “Structure modification of anoplin for fighting resistant bacteria” (Eur J Med Chem, 2024)
